# The source made the active and inactive calls. Cut-off read from the data, not from the text of the source, for most assays here: actives have a measured EC50 and inactives only a lower limit.
# Experiments:
# Fatty acid synthase [1] = molecular target: T1, Fatty acid synthase (Homo sapiens, UniProt P49327); test: FAS thioesterase domain inhibitors, dose response, biochemical, endpoint fluorescence intensity, uHTS hits (AID 624327); format: functional;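 note: fluorescence from hydrolysis of an O-methyl fluorescein acyl ester substrate by the enzyme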
# T1 sequence (P49327 whole entry, the tested form may be a part): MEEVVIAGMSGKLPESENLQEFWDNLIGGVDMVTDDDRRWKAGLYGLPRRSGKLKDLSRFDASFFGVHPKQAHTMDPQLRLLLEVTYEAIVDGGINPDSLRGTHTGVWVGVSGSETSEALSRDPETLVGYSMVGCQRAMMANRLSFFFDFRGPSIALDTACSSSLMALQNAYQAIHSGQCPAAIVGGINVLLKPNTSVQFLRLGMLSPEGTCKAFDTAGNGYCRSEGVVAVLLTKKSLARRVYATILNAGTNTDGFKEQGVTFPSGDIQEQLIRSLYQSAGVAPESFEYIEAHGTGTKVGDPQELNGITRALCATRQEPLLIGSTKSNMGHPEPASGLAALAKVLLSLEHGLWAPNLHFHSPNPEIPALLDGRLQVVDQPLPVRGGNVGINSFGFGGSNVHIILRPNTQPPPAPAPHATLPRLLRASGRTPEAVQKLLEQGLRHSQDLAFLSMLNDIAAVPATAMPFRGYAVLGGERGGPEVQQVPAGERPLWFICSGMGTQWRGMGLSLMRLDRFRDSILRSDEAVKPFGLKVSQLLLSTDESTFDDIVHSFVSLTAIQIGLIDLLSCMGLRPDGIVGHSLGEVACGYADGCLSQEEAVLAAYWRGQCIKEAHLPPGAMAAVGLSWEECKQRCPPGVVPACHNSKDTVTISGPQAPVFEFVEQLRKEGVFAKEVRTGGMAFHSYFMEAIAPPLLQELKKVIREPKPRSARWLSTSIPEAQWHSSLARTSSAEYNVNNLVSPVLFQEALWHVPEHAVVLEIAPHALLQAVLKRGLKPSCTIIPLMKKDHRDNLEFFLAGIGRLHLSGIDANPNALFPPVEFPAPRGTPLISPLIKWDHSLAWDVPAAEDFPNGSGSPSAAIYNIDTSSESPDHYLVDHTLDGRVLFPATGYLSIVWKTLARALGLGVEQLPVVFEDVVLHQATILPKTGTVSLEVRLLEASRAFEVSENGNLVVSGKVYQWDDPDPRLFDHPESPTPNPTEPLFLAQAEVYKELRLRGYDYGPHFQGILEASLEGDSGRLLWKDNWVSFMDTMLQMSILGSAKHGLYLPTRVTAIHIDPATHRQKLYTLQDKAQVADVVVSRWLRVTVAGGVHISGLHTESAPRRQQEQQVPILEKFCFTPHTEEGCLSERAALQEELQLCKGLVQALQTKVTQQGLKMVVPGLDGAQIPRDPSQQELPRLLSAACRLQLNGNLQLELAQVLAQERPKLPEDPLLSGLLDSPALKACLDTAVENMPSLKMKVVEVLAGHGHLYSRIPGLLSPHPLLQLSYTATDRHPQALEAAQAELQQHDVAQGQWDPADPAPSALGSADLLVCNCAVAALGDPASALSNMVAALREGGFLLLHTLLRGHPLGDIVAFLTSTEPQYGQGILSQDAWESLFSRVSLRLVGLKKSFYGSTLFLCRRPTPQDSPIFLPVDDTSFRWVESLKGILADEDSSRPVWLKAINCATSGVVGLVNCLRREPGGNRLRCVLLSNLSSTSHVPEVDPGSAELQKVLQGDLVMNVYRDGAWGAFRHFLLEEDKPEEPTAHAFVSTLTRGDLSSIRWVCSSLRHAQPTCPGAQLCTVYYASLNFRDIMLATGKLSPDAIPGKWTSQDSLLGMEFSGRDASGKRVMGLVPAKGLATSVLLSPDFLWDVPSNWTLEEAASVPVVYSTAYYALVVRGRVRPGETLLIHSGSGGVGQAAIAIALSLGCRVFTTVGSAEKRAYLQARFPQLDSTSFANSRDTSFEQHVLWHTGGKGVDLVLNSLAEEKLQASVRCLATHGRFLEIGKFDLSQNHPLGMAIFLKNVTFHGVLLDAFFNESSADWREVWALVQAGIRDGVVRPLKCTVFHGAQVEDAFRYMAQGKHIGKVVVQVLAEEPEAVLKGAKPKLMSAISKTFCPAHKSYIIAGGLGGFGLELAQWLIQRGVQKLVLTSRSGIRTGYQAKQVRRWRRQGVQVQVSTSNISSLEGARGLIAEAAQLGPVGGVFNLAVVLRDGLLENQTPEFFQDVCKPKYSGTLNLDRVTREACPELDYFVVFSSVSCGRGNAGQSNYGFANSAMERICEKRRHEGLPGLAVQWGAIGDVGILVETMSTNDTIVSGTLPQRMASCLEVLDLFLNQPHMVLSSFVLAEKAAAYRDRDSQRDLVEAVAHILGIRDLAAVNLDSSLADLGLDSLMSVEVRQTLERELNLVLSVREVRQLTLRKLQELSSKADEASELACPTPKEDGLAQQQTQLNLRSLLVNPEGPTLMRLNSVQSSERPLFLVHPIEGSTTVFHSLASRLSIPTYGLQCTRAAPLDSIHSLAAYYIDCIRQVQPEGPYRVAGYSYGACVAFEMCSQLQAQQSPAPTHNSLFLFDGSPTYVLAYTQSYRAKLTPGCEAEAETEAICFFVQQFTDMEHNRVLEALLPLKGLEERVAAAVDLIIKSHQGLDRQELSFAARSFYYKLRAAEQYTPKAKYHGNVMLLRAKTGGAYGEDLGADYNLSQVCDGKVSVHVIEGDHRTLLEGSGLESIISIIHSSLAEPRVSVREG
# Fatty acid synthase [2] = molecular target: T1, Fatty acid synthase; test: FAS thioesterase domain inhibitors, dose response, biochemical, kinetic fluorescence intensity (AID 624326); format: functional;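 note: rate of fluorescence rise from hydrolysis of a fluorogenic O-methyl fluorescein ester substrate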
# [3] = Luminescence Cell-Based Dose Confirmation HTS to Identify Activators of 5'UTR Stem-Loop Driven Alpha-Synuclein mRNA Translation in H4 Neuroglioblastoma Cells. [Related pubchem assays: 1829 (Project Summary), 1814 (Primary HTS)]; format: functional
# [4] = Luminescence Cell-Based Dose Response HTS to Identify Activators of Luciferase Translation or Activity in H4 […] Cells. [Related pubchem assays: 1829 (Project Summary), 1814 (Primary HTS)]; format: functional
# [5] = molecular target: T2, Replicative DNA helicase DnaB (Mycobacterium tuberculosis, UniProt P9WMR3); test: DnaB intein splicing inhibitors, dose response, biochemical, cell-free fluorescence (AID 449749); format: functional
# T2 sequence (P9WMR3 whole entry): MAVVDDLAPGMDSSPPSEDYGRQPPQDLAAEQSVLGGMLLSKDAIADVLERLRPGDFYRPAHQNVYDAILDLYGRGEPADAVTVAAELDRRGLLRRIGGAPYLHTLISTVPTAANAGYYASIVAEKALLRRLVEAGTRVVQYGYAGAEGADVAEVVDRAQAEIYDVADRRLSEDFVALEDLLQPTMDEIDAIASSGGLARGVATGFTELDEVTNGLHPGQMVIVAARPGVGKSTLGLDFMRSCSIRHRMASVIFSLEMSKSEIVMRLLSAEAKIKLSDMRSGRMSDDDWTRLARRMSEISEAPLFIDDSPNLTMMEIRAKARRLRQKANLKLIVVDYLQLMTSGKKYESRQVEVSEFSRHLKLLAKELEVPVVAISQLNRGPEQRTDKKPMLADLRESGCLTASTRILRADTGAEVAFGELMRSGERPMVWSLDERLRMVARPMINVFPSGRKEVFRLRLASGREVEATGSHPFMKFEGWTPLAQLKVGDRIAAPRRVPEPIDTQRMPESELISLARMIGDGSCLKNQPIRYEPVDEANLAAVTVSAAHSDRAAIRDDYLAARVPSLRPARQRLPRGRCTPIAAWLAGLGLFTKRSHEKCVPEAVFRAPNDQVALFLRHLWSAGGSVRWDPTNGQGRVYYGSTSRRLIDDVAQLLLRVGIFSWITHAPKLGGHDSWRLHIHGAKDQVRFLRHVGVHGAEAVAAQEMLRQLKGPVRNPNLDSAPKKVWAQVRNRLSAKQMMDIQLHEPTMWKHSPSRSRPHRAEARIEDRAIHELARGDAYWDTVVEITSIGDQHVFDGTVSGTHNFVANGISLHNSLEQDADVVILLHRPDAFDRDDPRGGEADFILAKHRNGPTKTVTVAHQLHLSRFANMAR
# Protein RecA = molecular target: T3, Protein RecA (Mycobacterium tuberculosis, UniProt P9WHJ3); test: Fluorescence Cell-Free Homogeneous Dose Retest to Identify Inhibitors of RecA-Intein Splicing Activity. [Related pubchem assays (depositor defined):AID2097, AID2223, AID489010, AID492950]; format: functional
# T3 sequence (P9WHJ3 whole entry): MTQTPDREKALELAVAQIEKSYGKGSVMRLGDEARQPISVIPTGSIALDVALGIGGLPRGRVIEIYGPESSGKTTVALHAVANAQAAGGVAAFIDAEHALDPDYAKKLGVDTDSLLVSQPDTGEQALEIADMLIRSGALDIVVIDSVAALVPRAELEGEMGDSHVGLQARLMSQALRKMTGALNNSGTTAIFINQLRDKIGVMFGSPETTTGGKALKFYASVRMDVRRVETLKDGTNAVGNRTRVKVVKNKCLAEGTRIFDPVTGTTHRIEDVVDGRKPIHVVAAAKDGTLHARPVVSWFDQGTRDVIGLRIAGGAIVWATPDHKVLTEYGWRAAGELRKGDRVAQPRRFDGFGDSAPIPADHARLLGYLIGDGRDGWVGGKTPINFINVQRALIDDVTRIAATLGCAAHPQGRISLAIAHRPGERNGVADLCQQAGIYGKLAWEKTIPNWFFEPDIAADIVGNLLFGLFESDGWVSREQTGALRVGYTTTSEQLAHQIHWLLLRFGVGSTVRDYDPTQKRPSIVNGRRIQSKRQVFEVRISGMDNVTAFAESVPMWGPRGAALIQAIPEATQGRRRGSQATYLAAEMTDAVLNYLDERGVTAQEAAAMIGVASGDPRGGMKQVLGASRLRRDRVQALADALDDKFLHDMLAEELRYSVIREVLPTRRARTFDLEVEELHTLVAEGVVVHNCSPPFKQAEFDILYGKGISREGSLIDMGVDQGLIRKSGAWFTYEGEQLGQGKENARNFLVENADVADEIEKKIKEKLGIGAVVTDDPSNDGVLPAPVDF
# H4 = test: Luminescence Cell-Based Dose Response HTS to Identify Activators of 5'UTR Stem-Loop Driven Prion Protein mRNA Translation in H4 Neuroglioblastoma Cells. [Related pubchem assays: 1829 (Project Summary), 1814 (Primary HTS)]; format: functional; settings: Homo sapiens
# [6] = molecular target: T4, Rac GTPase-activating protein 1 (Homo sapiens, UniProt Q9H0H5); test: MgcRacGAP GTPase-activating activity inhibitors, confirmation, biochemical, ADP Hunter fluorescence, primary and confirmatory (AID 624330); format: functional
# T4 sequence (Q9H0H5 whole entry): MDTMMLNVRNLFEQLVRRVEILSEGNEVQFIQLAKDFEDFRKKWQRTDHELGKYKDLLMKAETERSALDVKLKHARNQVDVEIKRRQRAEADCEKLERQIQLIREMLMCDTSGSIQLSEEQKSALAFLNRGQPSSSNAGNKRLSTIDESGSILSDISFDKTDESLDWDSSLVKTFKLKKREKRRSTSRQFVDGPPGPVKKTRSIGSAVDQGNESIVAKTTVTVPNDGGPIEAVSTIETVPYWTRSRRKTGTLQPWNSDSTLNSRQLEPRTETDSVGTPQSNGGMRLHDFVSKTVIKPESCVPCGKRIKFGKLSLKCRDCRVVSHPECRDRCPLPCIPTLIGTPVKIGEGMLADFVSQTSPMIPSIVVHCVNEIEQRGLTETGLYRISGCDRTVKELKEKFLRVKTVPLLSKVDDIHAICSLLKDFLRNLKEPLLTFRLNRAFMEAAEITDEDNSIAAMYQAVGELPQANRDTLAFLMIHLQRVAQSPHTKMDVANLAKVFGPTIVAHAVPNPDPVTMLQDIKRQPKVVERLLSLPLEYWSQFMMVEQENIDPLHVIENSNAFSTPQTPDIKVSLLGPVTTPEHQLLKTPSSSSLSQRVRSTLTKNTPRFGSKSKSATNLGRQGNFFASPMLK
# [7] = NIH-3T3 fibroblast cytotoxicity, dose response, cytotoxicity control, cell-based, fluorescence, Alamar Blue, secondary assay (AID 2327); format: functional;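 note: NIH-3T3 mouse fibroblasts cultured with fluconazole at 8 µg/mL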
# [8] = C. albicans growth with fluconazole, confirmation, fluorescence, retest (AID 2467); format: functional, cell-based
# [9] = inhibitors of intracellular T. cruzi replication, confirmation, NIH3T3 host cells, beta-gal luminescence (AID 2044); format: functional, cell-based;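 note: intracellular parasites grown in NIH/3T3 mouse fibroblasts as host cells; luminescent beta-galactosidase reporter signal from transgenic T. cruzi replicating inside host cells; inhibitors lower the luminescence signal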
# [10] = cytotoxicity toward NIH3T3 fibroblasts, dose response, counter-screen, cell-based, ATP luminescence, mouse fibroblasts (AID 2010); format: functional;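 note: cells exposed to compound for about 90 hours before reading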
structure (smiles),measurement,setting,value
CC(C)(C)OC(=O)NCc1ccc(CNC(=O)c2[nH]cnc2C(=O)NCC(=O)OCc2ccccc2)cc1,IC50,Fatty acid synthase [1],6.98 µM (active)
same,IC50,Fatty acid synthase [2],4.49 µM (active)
O=C(NC1=NCCS1)c1ccc(-c2ccc(Cl)cc2)o1,EC50,[3],21.4 µM (active)
same,EC50,[4],0.306 µM (active)
Cc1ccc(-c2noc(-c3ccccc3C(=O)N3CCOCC3)n2)cc1,AC50,[5],196 µM (active)
same,EC50,Protein RecA,> 380 µM (inactive)
CC(=O)c1cnc2nc(SCc3ccccc3)nn2c1C,EC50,[3],0.116 µM (active)
same,EC50,[4],0.131 µM (inconclusive)
same,EC50,H4,74.8 µM (active)
COc1cccc(C2=NO[C@@H]3C(=O)N(c4ccc5c(c4)OCCO5)C(=O)[C@H]23)c1OC,EC50,[3],> 120 µM (not active)
same,EC50,[4],> 120 µM (not active)
same,EC50,H4,> 120 µM (not active)
CC(=O)C1=C(O)C(=O)N(c2ccc(Br)cn2)C1c1ccc(Br)cc1 (stereo not drawn),EC50,[3],> 120 µM (not active)
same,EC50,[4],0.112 µM (active)
same,EC50,H4,0.987 µM (active)
Nc1nn2c(-c3ccccc3)cc(O)nc2c1N=Nc1ccc(O)cc1,AC50,[5],3.91 µM (active)
same,EC50,Protein RecA,1.88 µM (active)
same,IC50,[6],60.1 µM (active)
Cc1cccc(NC(=O)c2cc([N+](=O)[O-])ccc2N2CCN(C)CC2)c1,IC50,Fatty acid synthase [1],8.93 µM (active)
same,IC50,Fatty acid synthase [2],11.3 µM (active)
COc1ccccc1NC(=O)c1ccccc1S(=O)(=O)c1ccc([N+](=O)[O-])cc1,IC50,Fatty acid synthase [1],14.9 µM (active)
same,IC50,Fatty acid synthase [2],8.19 µM (active)
Cc1nc(-c2ccc(S(=O)(=O)Oc3ccccc3Cl)s2)cs1,EC50,[3],13 µM (active)
same,EC50,[4],12 µM (active)
same,EC50,H4,2.84 µM (active)
O=C(NNc1ccc(Cl)cc1)c1c(F)cccc1Cl,EC50,[7],> 150 µM (inactive)
same,EC50,[8],> 38 µM (not active)
O=C(NCCCc1ccccc1)c1ccc([N+](=O)[O-])cc1Cl,IC50,Fatty acid synthase [1],1.25 µM (active)
same,IC50,Fatty acid synthase [2],1.31 µM (active)
COc1cc(C)c(Cl)c(C)c1S(=O)(=O)NC1CC(C)(C)NC(C)(C)C1,EC50,[3],15.2 µM (active)
same,EC50,[4],> 120 µM (not active)
same,EC50,H4,> 120 µM (not active)
Nc1ccc(S(=O)(=O)Nc2nccc(/C=C/c3ccc(Cl)cc3Cl)n2)cc1,EC50,[3],> 120 µM (not active)
same,EC50,[4],13.6 µM (active)
same,EC50,H4,> 120 µM (not active)
CCN1CCN(CCCOc2ccc(Cl)cc2Br)CC1,EC50,[9],1.6 µM (active)
same,EC50,[10],32.5 µM (active)
same,IC50,[6],68.8 µM (active)
CCc1nnc(NC(=O)C23CC4CC(CC(C4)C2)C3)s1,EC50,[3],19 µM (active)
same,EC50,[4],45.6 µM (active)
same,EC50,H4,8.2 µM (active)
CN(C)/C=C1\NC(=S)N(c2ccccc2)C1=O,IC50,[6],65.4 µM (active)
O=C(CN1CCN(c2ccc(O)cc2)CC1)Nc1ccc2c(c1)OCCCO2,IC50,[6],49.7 µM (active)
Cc1c(Br)c([N+](=O)[O-])nn1CC(=O)Nc1ccc(C(C)C)cc1,IC50,Fatty acid synthase [1],3.18 µM (active)
same,IC50,Fatty acid synthase [2],6.92 µM (active)
O=c1c2ccccc2cnn1CCOc1cccc(Br)c1,EC50,[3],27.5 µM (active)
same,EC50,[4],33.9 µM (active)
same,EC50,H4,6.06 µM (active)
COc1ccc(NC(=O)CN(c2ccc([N+](=O)[O-])cc2)S(=O)(=O)c2ccccc2)c(OC)c1,IC50,Fatty acid synthase [1],4.43 µM (active)
same,IC50,Fatty acid synthase [2],5.78 µM (active)
COc1ccc(-c2ccc(=O)n(CC(=O)Nc3cccc(O)c3)n2)cc1OC,EC50,[7],> 150 µM (inconclusive)
same,EC50,[8],> 38 µM (not active)
Cc1cc(O)ccc1Nc1nc(-c2cccnc2)cs1,EC50,[3],7.92 µM (active)
same,EC50,[4],0.389 µM (active)
same,EC50,H4,6.4 µM (active)
Cc1cc(C)nc(SC2=CS(=O)(=O)c3ccccc32)n1,EC50,[3],12.1 µM (active)
same,EC50,H4,> 120 µM (not active)
O=C(Nc1ccc(Cc2ccncc2)cc1)c1ccc(Cl)c([N+](=O)[O-])c1,IC50,Fatty acid synthase [1],10.2 µM (active)
same,IC50,Fatty acid synthase [2],10.9 µM (active)
O=C(CN1CCCCC1)Nc1scc2c1c(=O)oc1ccccc12,EC50,[3],> 120 µM (not active)
same,EC50,[4],16.1 µM (active)
same,EC50,H4,59.7 µM (active)
COc1ccc2c(c1)C(=C(C#N)C#N)C(=O)N2CCc1ccccc1,AC50,[5],3.97 µM (active)
same,EC50,Protein RecA,21.2 µM (active)
CCN1CCN(CCCOc2ccccc2-c2ccccc2)CC1,IC50,[6],96.9 µM (active)
O=[N+]([O-])c1ccc(SNc2ccccc2)c([N+](=O)[O-])c1,IC50,Fatty acid synthase [1],10.4 µM (active)
same,IC50,Fatty acid synthase [2],9.38 µM (active)
O=C(N/N=C/c1coc2ccc(Cl)cc2c1=O)c1ccc(O)cc1,AC50,[5],> 380 µM (inactive)
same,EC50,Protein RecA,16.1 µM (active)
same,IC50,Fatty acid synthase [1],6.64 µM (active)
same,IC50,Fatty acid synthase [2],4.84 µM (active)
COc1cc(/C=N/NC(=O)c2cc[n+]([O-])cc2)ccc1O,IC50,[6],32.7 µM (active)
CCn1c(-c2ccccc2)cs/c1=N\c1ccc(O)cc1,IC50,[6],31.7 µM (active)
C/C(CC(=O)Nc1ccccc1[N+](=O)[O-])=N\NC(=O)COc1ccccc1C,AC50,[5],10.5 µM (active)
same,EC50,Protein RecA,3.85 µM (active)
CN1CCN(/N=C/c2nc(-c3ccc(Cl)cc3)n3ccccc23)CC1,IC50,[6],27.1 µM (active)
Cc1ccc(NC(=O)CSc2nnc([C@@H](N)Cc3c[nH]c4ccccc34)o2)c(C)c1,EC50,[7],> 150 µM (inactive)
same,EC50,[8],> 38 µM (not active)
